Measured values: patent publication US20220304978A1, “INHIBITING MESANGIAL CELL ACTIVATION” (Chinook Therapeutics, Inc., priority 2019, published 2022)

Tested on: kidney tissue of g-ddY mice
Assay: IPA upstream regulator analysis, g-ddY kidney RNA-seq
Settings: 30 mg/kg/day
[1] = ligand-dependent nuclear receptor

CCCCN(CCCC)C(=O)CN1C[C@H](c2ccc3c(c2)OCO3)[C@@H](C(=O)O)[C@@H]1c1ccc(OC)cc1 [atrasentan, (2R,3R,4S)-4-(1,3-benzodioxol-5-yl)-1-[2-(dibutylamino)-2-oxoethyl]-2-(4-methoxyphenyl)pyrrolidine-3-carboxylic acid]
AHR Activation z-score [1]: 2.092 | AHR Predicted Activation State [1]: Activated | ESR1 Activation z-score [1]: −2.439 | ESR1 Predicted Activation State [1]: Inhibited | ESRRA Activation z-score [1]: 2.517 | ESRRA Predicted Activation State [1]: Activated | NR3C2 Activation z-score [1]: −2.191 | NR3C2 Predicted Activation State [1]: Inhibited | NR4A1 Activation z-score [1]: −2.488 | NR4A1 Predicted Activation State [1]: Inhibited | PPARA Activation z-score [1]: 3.182 | PPARA Predicted Activation State [1]: Activated | PPARG Activation z-score [1]: 3.581 | PPARG Predicted Activation State [1]: Activated | RXRA Activation z-score [1]: 2.96 | RXRA Predicted Activation State [1]: Activated | ARNT2 Activation z-score (transcription regulator): −2.079 | ARNT2 Predicted Activation State (transcription regulator): Inhibited | BCL6 Activation z-score (transcription regulator): 2.514 | BCL6 Predicted Activation State (transcription regulator): Activated | CBX5 Activation z-score (transcription regulator): 2.355 | CBX5 Predicted Activation State (transcription regulator): Activated | CCND1 Activation z-score (transcription regulator): −3.003 | CCND1 Predicted Activation State (transcription regulator): Inhibited | CEBPD Activation z-score (transcription regulator): −2.154 | CEBPD Predicted Activation State (transcription regulator): Inhibited | CTNNB1 Activation z-score (transcription regulator): −3.373 | CTNNB1 Predicted Activation State (transcription regulator): Inhibited | DACH1 Activation z-score (transcription regulator): 2.354 | DACH1 Predicted Activation State (transcription regulator): Activated | ECSIT Activation z-score (transcription regulator): −2.72 | ECSIT Predicted Activation State (transcription regulator): Inhibited | EGR1 Activation z-score (transcription regulator): −2.766 | EGR1 Predicted Activation State (transcription regulator): Inhibited | ELK1 Activation z-score (transcription regulator): −2.151 | ELK1 Predicted Activation State (transcription regulator): Inhibited | ERG Activation z-score (transcription regulator): −3.672 | ERG Predicted Activation State (transcription regulator): Inhibited | ETS1 Activation z-score (transcription regulator): −2.096 | ETS1 Predicted Activation State (transcription regulator): Inhibited | FEV Activation z-score (transcription regulator): −3.651 | FEV Predicted Activation State (transcription regulator): Inhibited | FOXC1 Activation z-score (transcription regulator): −2.563 | FOXC1 Predicted Activation State (transcription regulator): Inhibited | FOXC2 Activation z-score (transcription regulator): −3.361 | FOXC2 Predicted Activation State (transcription regulator): Inhibited | FOXF1 Activation z-score (transcription regulator): −2.253 | FOXF1 Predicted Activation State (transcription regulator): Inhibited | FOXL2 Activation z-score (transcription regulator): −3.108 | FOXL2 Predicted Activation State (transcription regulator): Inhibited | FOXM1 Activation z-score (transcription regulator): −2.307 | FOXM1 Predicted Activation State (transcription regulator): Inhibited | FOXO3 Activation z-score (transcription regulator): 2.338 | FOXO3 Predicted Activation State (transcription regulator): Activated | GATA1 Activation z-score (transcription regulator): −3.309 | GATA1 Predicted Activation State (transcription regulator): Inhibited | GFI1 Activation z-score (transcription regulator): 2.82 | GFI1 Predicted Activation State (transcription regulator): Activated | GPS2 Activation z-score (transcription regulator): 2.51 | GPS2 Predicted Activation State (transcription regulator): Activated | HIF1A Activation z-score (transcription regulator): −2.042 | HIF1A Predicted Activation State (transcription regulator): Inhibited | HNF1A Activation z-score (transcription regulator): 4.107 | HNF1A Predicted Activation State (transcription regulator): Activated | HNF1B Activation z-score (transcription regulator): 2.944 | HNF1B Predicted Activation State (transcription regulator): Activated | HNF4A Activation z-score (transcription regulator): 4.856 | HNF4A Predicted Activation State (transcription regulator): Activated | HOXC6 Activation z-score (transcription regulator): −2.35 | HOXC6 Predicted Activation State (transcription regulator): Inhibited | IKZF1 Activation z-score (transcription regulator): 3.472 | IKZF1 Predicted Activation State (transcription regulator): Activated | IKZF3 Activation z-score (transcription regulator): 3.165 | IKZF3 Predicted Activation State (transcription regulator): Activated | IRF7 Activation z-score (transcription regulator): −4.492 | IRF7 Predicted Activation State (transcription regulator): Inhibited | IRF8 Activation z-score (transcription regulator): −2.577 | IRF8 Predicted Activation State (transcription regulator): Inhibited | JUNB Activation z-score (transcription regulator): −3.721 | JUNB Predicted Activation State (transcription regulator): Inhibited | KDM5A Activation z-score (transcription regulator): −5.858 | KDM5A Predicted Activation State (transcription regulator): Inhibited | KLF2 Activation z-score (transcription regulator): 2.742 | KLF2 Predicted Activation State (transcription regulator): Activated | KLF4 Activation z-score (transcription regulator): −3.94 | KLF4 Predicted Activation State (transcription regulator): Inhibited | KLF15 Activation z-score (transcription regulator): 3.401 | KLF15 Predicted Activation State (transcription regulator): Activated | KMT2A Activation z-score (transcription regulator): −2.246 | KMT2A Predicted Activation State (transcription regulator): Inhibited | LHX1 Activation z-score (transcription regulator): 4.214 | LHX1 Predicted Activation State (transcription regulator): Activated | MECP2 Activation z-score (transcription regulator): −2.419 | MECP2 Predicted Activation State (transcription regulator): Inhibited | MEF2D Activation z-score (transcription regulator): −3.056 | MEF2D Predicted Activation State (transcription regulator): Inhibited | MEOX2 Activation z-score (transcription regulator): 2.54 | MEOX2 Predicted Activation State (transcription regulator): Activated | MESP1 Activation z-score (transcription regulator): −2.646 | MESP1 Predicted Activation State (transcription regulator): Inhibited | MESP2 Activation z-score (transcription regulator): −2.449 | MESP2 Predicted Activation State (transcription regulator): Inhibited | MLXIPL Activation z-score (transcription regulator): 2.871 | MLXIPL Predicted Activation State (transcription regulator): Activated | MRTFA Activation z-score (transcription regulator): −3.84 | MRTFA Predicted Activation State (transcription regulator): Inhibited | MRTFB Activation z-score (transcription regulator): −4.734 | MRTFB Predicted Activation State (transcription regulator): Inhibited | MTPN Activation z-score (transcription regulator): −2.942 | MTPN Predicted Activation State (transcription regulator): Inhibited | MYCN Activation z-score (transcription regulator): 4.584 | MYCN Predicted Activation State (transcription regulator): Activated | Msx3 Activation z-score (transcription regulator): −2 | Msx3 Predicted Activation State (transcription regulator): Inhibited | NCOA3 Activation z-score (transcription regulator): −2.143 | NCOA3 Predicted Activation State (transcription regulator): Inhibited | NEUROG1 Activation z-score (transcription regulator): 3 | NEUROG1 Predicted Activation State (transcription regulator): Activated | NFE2L2 Activation z-score (transcription regulator): 3.389 | NFE2L2 Predicted Activation State (transcription regulator): Activated | NFKB1 Activation z-score (transcription regulator): −3.239 | NFKB1 Predicted Activation State (transcription regulator): Inhibited | NRIP1 Activation z-score (transcription regulator): −2.267 | NRIP1 Predicted Activation State (transcription regulator): Inhibited | PAX7 Activation z-score (transcription regulator): −2.883 | PAX7 Predicted Activation State (transcription regulator): Inhibited | PCGF2 Activation z-score (transcription regulator): 2 | PCGF2 Predicted Activation State (transcription regulator): Activated | PDX1 Activation z-score (transcription regulator): −2.958 | PDX1 Predicted Activation State (transcription regulator): Inhibited | PITX2 Activation z-score (transcription regulator): 3.976 | PITX2 Predicted Activation State (transcription regulator): Activated | PPARGC1A Activation z-score (transcription regulator): 8.123 | PPARGC1A Predicted Activation State (transcription regulator): Activated | PPARGC1B Activation z-score (transcription regulator): 2.664 | PPARGC1B Predicted Activation State (transcription regulator): Activated | PRDM1 Activation z-score (transcription regulator): 2.281 | PRDM1 Predicted Activation State (transcription regulator): Activated | RB1 Activation z-score (transcription regulator): 4.435 | RB1 Predicted Activation State (transcription regulator): Activated | REL Activation z-score (transcription regulator): −2.451 | REL Predicted Activation State (transcription regulator): Inhibited | RELA Activation z-score (transcription regulator): −4.344 | RELA Predicted Activation State (transcription regulator): Inhibited | RUNX3 Activation z-score (transcription regulator): 3.355 | RUNX3 Predicted Activation State (transcription regulator): Activated | SMAD2 Activation z-score (transcription regulator): −2.323 | SMAD2 Predicted Activation State (transcription regulator): Inhibited | SMAD3 Activation z-score (transcription regulator): −2.952 | SMAD3 Predicted Activation State (transcription regulator): Inhibited | SMAD4 Activation z-score (transcription regulator): −2.417 | SMAD4 Predicted Activation State (transcription regulator): Inhibited | SMAD7 Activation z-score (transcription regulator): 3.504 | SMAD7 Predicted Activation State (transcription regulator): Activated | SMARCA4 Activation z-score (transcription regulator): −3.211 | SMARCA4 Predicted Activation State (transcription regulator): Inhibited | SMYD1 Activation z-score (transcription regulator): 2.213 | SMYD1 Predicted Activation State (transcription regulator): Activated | SNAI1 Activation z-score (transcription regulator): −2.699 | SNAI1 Predicted Activation State (transcription regulator): Inhibited | SOX4 Activation z-score (transcription regulator): −2.397 | SOX4 Predicted Activation State (transcription regulator): Inhibited | SP1 Activation z-score (transcription regulator): −2.444 | SP1 Predicted Activation State (transcription regulator): Inhibited | SPDEF Activation z-score (transcription regulator): 4.415 | SPDEF Predicted Activation State (transcription regulator): Activated | SPI1 Activation z-score (transcription regulator): −3.51 | SPI1 Predicted Activation State (transcription regulator): Inhibited | SPIB Activation z-score (transcription regulator): −2.933 | SPIB Predicted Activation State (transcription regulator): Inhibited | SPZ1 Activation z-score (transcription regulator): −2.022 | SPZ1 Predicted Activation State (transcription regulator): Inhibited | SREBF2 Activation z-score (transcription regulator): 2.277 | SREBF2 Predicted Activation State (transcription regulator): Activated | SRF Activation z-score (transcription regulator): −3.269 | SRF Predicted Activation State (transcription regulator): Inhibited | SRSF2 Activation z-score (transcription regulator): 2.328 | SRSF2 Predicted Activation State (transcription regulator): Activated | STAT1 Activation z-score (transcription regulator): −3.918 | STAT1 Predicted Activation State (transcription regulator): Inhibited | STAT3 Activation z-score (transcription regulator): −4.716 | STAT3 Predicted Activation State (transcription regulator): Inhibited | STAT4 Activation z-score (transcription regulator): −2.401 | STAT4 Predicted Activation State (transcription regulator): Inhibited | TCF4 Activation z-score (transcription regulator): −2.836 | TCF4 Predicted Activation State (transcription regulator): Inhibited | TCF7L1 Activation z-score (transcription regulator): 2.373 | TCF7L1 Predicted Activation State (transcription regulator): Activated | TEAD1 Activation z-score (transcription regulator): −3.036 | TEAD1 Predicted Activation State (transcription regulator): Inhibited | TEAD2 Activation z-score (transcription regulator): −3.153 | TEAD2 Predicted Activation State (transcription regulator): Inhibited | TEAD3 Activation z-score (transcription regulator): −3.638 | TEAD3 Predicted Activation State (transcription regulator): Inhibited | TEAD4 Activation z-score (transcription regulator): −2.143 | TEAD4 Predicted Activation State (transcription regulator): Inhibited | TFAP2C Activation z-score (transcription regulator): 2.899 | TFAP2C Predicted Activation State (transcription regulator): Activated | TFEB Activation z-score (transcription regulator): 2.587 | TFEB Predicted Activation State (transcription regulator): Activated | TP53 Activation z-score (transcription regulator): −3.365 | TP53 Predicted Activation State (transcription regulator): Inhibited | TWIST1 Activation z-score (transcription regulator): −2.987 | TWIST1 Predicted Activation State (transcription regulator): Inhibited | Tcf7 Activation z-score (transcription regulator): −3.984 | Tcf7 Predicted Activation State (transcription regulator): Inhibited | XBP1 Activation z-score (transcription regulator): 3.505 | XBP1 Predicted Activation State (transcription regulator): Activated | YAP1 Activation z-score (transcription regulator): −4.255 | YAP1 Predicted Activation State (transcription regulator): Inhibited
